Results from patent publication US20160008490A1, “METAL CHELATE COMPOUNDS FOR BINDING TO THE PLATELET SPECIFIC GLYCOPROTEIN IIB/IIIA” (BAYER PHARMA AKTIENGESELLSCHAFT, priority 2013, published 2016).

Assays:
[1] = test system: human activated platelets; experiment: Binding of investigated compounds to human activated platelets (ICP-MS of Gd in pellet and supernatant); type: cell-based; settings: incubation concentration 1 μM molecule; for Concentration within platelet pellet: ADP-activated platelet-rich plasma, 20 minutes, pellet washed
Method: For each experiment fresh blood was taken from a volunteer using 10 mL citrate-tubes (Sarstedt S-Monovette 02.1067.001, 10 mL, Citrate 3.13%). The 10 mL citrate-tubes were carefully inverted 10 times to mix blood and anticoagulant. The tubes were stored in an incubator at a temperature of 37° C. until centrifugation (Heraeus miniTherm CTT with integrated rotation- and turning device, turning speed: 19 rotations per minute, Heraeus Instruments GmbH, Hanau/Germany).
For plasma preparation tube centrifugation was carried out for 15 minutes at 1811 g at room temperature (Eppendorf, Centrifuge 5810R). Blood was centrifuged 15 minutes at 201 g at room temperature to produce platelet-rich plasma. The tubes were stored for 30 min at room temperature to get a better separation. The separated platelet-rich plasma was finally centrifuged for further 3 min at 453 g to remove the remaining erythrocytes. The platelet-rich plasma was activated using a final concentration of 5 μM Adenosindiphosphate (ADP, Sigma). The activated platelet-rich plasma was incubated 20 minutes with different concentrations of gadolinium-labeled compound and subsequently was centrifuged 3 minutes at 1360 g. 20 μL of incubation solution was taken to determine the concentration (n=3). […] The gadolinium concentration of supernatant and pellet was determined using an inductively coupled plasma mass spectrometry (ICP-MS Agilent 7500a).
The results for incubation concentration of 1 μM gadolinium-labeled compound are summarized in table 3 (in comparison to Gadovist® standard dose: 100 μmol Gd/kg body weight).

[2] = Relaxivity measurements at 1.41 T in water and plasma; type: physicochemical; settings: relaxivity normalized to Gd, 37° C.
Method: Relaxivity measurements at 1.41 T were performed using a MiniSpec mq60 spectrometer (Bruker Analytik, Karlsruhe) operating at a resonance frequency of 60 MHz and a temperature of 37° C. The T1 relaxation times were determined using the standard inversion recovery method. The T2 measurements were done by using the Carr-Purcell-Meiboom-Gill (CPMG) pulse sequence. All measurements were done at concentrations between 0.05 mM and 1 mM of Gd in water and plasma.
The relaxivities ri (where i=1, 2) were calculated on the basis of the measured relaxation rates Ri in water and plasma:
where Ri(0) represent the relaxation rate of the respective solvent and CGd the concentration of the compound normalized to the Gadolium.

[3] = biological target: T1, human GP IIb/IIIa receptor (Homo sapiens, UniProt P05106+P08514); experiment: GPIIb/IIIa affinity assay (displacement of tritiated reference compound from immobilized receptor); type: binding; settings: purified human GPIIb/IIIa, 60 nM 3H-labeled reference compound, 1 hour at room temperature
T1 construct: human GPIIb/IIIa purified from human platelets was immobilized on a 96-well solid plate; purchased Enzyme Research Laboratories Inc. (South Bend, Ind.); host or cells: human platelets (natural source, detergent-solubilised)
Method: Affinity assay: In the first step human GPIIb/IIIa purified from human platelets was immobilized on a 96-well solid plate. After 48 hours the plates were washed and the unspecific binding sites were blocked with Roti®-Block. 2. In the next step, the plates were simultaneously incubated with a tritium labeled known GPIIb/IIIa binder (^3H) mixed with increasing concentrations of the novel compounds (inhibitor). The higher the affinity of the inhibitor, the lower the bound fraction of the tritiated known GPIIb/IIIa binder (^3H) was. The fraction of tritiated compound (^3H), which is not displaced by inhibitor, was measured in a microplate scintillation counter.
Purified human glycoprotein IIb/IIIa (20 mM Tris-HCl, 0.1 M NaCl, 0.1% Triton X-100, 1 mM CaCl2, 0.05% NaN3, 50% Glycerol, pH 7.4) was purchased from Enzyme Research Laboratories Inc. (South Bend, Ind.). The GPIIb/IIIa receptor was diluted in phosphate-buffered saline (Dulbecco's Phosphate Buffered Saline (D-PBS (+)) with calcium and magnesium, GIBCO®, Invitrogen) with 0.01% bovine serum albumin (albumin from bovine serum—lyophilized powder, 96%, Sigma).
The GPIIb/IIIa receptor was immobilized 48 hours at least (100 μL per well, 48 to maximum 96 hours) on a 96-well solid plate (Immuno Plate MaxiSorp™, Nunc, Roskilde, Denmark) at 277 K to 280 K and at a concentration of 0.1 μg per well to 1 μg per well. As negative control one row of the plate (n=8) was incubated just with 2% bovine serum albumin (200 μL per well, albumin from bovine serum—lyophilized powder, ≧96%, Sigma, diluted in D-PBS (+)).
After washing three times with the wash buffer (230 μL per well, Dulbecco's Phosphate Buffered Saline (D-PBS (−)) contains no calcium or magnesium, GIBCO®, Invitrogen) residual exposed plastic and unspecific binding sites were blocked by incubating the plate with a special blocking solution (200 μL per well, Roti®-Block, Car Roth GmbH Co KG, Karlsruhe) containing 2% bovine serum albumin (Albumin from bovine serum—lyophilized powder, ≧96%, Sigma) 1 hour at room temperature.
After washing three times with the wash buffer 50 μL of tritiated reference compound (60 nM, ^3H-labeled compound) and 50 μL of novel compound (inhibitor) were simultaneously added to each well and incubated for 1 hour at room temperature. Several concentrations of each novel inhibitor (0.1, 1, 2, 5, 10, 20 50, 100, 200, 500, 1000, 2000, 5000, 10000 and 20000 nM) were investigated. At each concentration of inhibitor a fourfold determination was performed.
The maximum value of tritiated reference compound was determined without addition of inhibitor (n=8). To exclude unspecific binding of ^3H— reference compound wells without glycoprotein receptors were used as negative controls (n=12, identically treated just without GPIIb/IIIa receptors).
After one hour the plate was washed three times with phosphate-buffered saline (200 μL per well, Dulbecco's Phosphate Buffered Saline (D-PBS (+)), GIBCO®, Invitrogen). Following 140 μL of liquid scintillation cocktail (MicroScint™ 40 aqueous, Perkin Elmer) was added to each well. After 15 min at room temperature the plates were measured at the microplate scintillation counter (TopCount NXT v2.13, Perkin Elmer, Packard Instrument Company).
In the first step human glycoprotein IIb/IIIa, which is purified from human platelets, was immobilized on a 96-well solid plate. After 48 hours at least the plates were washed and the unspecific binding sites were blocked with Roti®-Block. In the next step, the plates were simultaneously incubated with a tritium labeled reference compound and the novel small molecule compound (inhibitor). The higher the affinity of the inhibitor, the smaller is the bound fraction of reference compound. The fraction of tritiated reference compound, which is not displaced by inhibitor, was measured at a microplate scintillation counter. The higher the affinity of the inhibitor, the smaller is the bound fraction of tritium-labeled reference compound. […]

T1 sequence (P08514 32-887 limits assumed): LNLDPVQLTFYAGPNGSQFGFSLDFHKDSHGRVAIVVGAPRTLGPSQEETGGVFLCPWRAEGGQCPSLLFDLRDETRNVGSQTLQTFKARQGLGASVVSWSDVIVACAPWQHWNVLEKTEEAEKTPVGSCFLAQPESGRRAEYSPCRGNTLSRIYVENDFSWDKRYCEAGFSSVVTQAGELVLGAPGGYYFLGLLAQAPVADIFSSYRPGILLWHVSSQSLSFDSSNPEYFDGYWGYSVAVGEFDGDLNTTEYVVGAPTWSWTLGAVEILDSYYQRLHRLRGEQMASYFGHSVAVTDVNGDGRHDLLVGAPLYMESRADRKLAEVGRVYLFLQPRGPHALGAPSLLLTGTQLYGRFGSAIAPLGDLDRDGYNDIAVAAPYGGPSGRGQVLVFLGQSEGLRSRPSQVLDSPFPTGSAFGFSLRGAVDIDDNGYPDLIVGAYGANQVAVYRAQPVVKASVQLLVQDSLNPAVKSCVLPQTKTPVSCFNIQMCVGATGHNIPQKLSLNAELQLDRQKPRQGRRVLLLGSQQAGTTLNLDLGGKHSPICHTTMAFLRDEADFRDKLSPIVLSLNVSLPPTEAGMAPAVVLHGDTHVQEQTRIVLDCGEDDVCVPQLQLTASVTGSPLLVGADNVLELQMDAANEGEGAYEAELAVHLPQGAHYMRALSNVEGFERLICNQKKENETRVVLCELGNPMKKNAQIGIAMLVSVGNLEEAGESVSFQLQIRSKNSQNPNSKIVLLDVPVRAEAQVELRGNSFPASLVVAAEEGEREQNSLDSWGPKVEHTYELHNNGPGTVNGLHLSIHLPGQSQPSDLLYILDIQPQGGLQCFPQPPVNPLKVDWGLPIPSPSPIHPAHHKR
T1 sequence (P08514 891-1039 partner limits assumed): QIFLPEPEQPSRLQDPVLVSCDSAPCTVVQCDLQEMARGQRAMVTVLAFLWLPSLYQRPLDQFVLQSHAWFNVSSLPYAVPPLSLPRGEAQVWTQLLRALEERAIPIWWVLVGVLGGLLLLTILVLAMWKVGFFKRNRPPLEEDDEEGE
T1 sequence (P05106 27-788): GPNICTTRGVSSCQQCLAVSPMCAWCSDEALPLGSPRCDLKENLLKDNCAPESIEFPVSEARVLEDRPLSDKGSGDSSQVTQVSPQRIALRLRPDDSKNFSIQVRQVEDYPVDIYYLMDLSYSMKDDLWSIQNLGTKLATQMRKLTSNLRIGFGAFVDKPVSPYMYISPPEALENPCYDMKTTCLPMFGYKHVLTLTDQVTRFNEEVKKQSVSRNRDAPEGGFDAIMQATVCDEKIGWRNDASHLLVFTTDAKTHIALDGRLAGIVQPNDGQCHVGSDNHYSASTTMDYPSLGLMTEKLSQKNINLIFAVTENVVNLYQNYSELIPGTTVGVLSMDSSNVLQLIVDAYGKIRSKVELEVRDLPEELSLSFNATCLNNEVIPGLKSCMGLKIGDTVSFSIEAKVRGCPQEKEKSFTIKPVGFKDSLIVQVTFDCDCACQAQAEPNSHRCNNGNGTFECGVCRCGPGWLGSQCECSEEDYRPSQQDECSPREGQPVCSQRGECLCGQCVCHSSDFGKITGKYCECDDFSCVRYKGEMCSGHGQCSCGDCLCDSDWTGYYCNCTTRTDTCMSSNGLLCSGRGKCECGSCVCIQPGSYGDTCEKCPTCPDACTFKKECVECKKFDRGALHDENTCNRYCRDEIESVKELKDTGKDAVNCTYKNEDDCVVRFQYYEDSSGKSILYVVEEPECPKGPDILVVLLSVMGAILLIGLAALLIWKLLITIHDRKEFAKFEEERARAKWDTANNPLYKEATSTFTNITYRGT

Compound	Concentration within platelet pellet [1] [μM Gd]	r1 plasma [2] [L/mmol/s]	r1 water [2] [L/mmol/s]	IC50 [3] [nM]	pellet/supernatant ([1]; ratio of Gd concentration)
CC(C(=O)NCC(=O)NCCCCc1cc(C#Cc2cncc([C@H](CC(=O)O)NC(=O)[C@@H]3CCCN(C(=O)CCC4CCNCC4)C3)c2)cc(CCCCNC(=O)CNC(=O)C(C)N2CCN(CC(=O)O)CCN(CC(=O)O)CCN(CC(=O)O)CC2)c1)N1CCN(CC(=O)O)CCN(CC(=O)O)CCN(CC(=O)O)CC1 (stereo partly drawn) [Example 6, Digadolinium 2,2′,2″,2′″,2″″,2′″″-({5-[(5-{(1S)-2-carboxy-1-[({(3R)-1-[3-(piperidin-4-yl)-propanoyl]piperidin-3-yl}carbonyl)amino]ethyl}pyridin-3-yl)ethynyl]-1,3-phenylene}-bis[butane-4,1-diylimino(2-oxoethane-2,1-diyl)imino(1-oxopropane-1,2-diyl)-1,4,7,10-tetraazacyclododecane-10,1,4,7-tetrayl])hexaacetate]	6.8 ± 0.7	10.3	8.5	103	–
Gadolinium 2,2′,2″-{10-[(2S)-1-({2-[(6-(3-[(5-{(1S)-2-carboxy-1-[({(3R)-1-[3-(piperidin-4- yl)propanoyl]piperidin-3-yl}carbonyl)amino]ethyl}pyridin-3-yl)ethynyl]phenyl}butyl)-amino]-2-oxoethyl)amino)-1-oxopropan-2-yl]-1,4,7,10-tetraazacyclododecane-1,4,7-triyl}triacetate [Example 5]	3.9 ± 0.4	9.9	8.0	25	123 ± 16 (n = 3)
